Like-named read-outs stand apart in the source and are kept apart here.
Columns and labels:
spring barley (HORVS) = assay: Postemergence greenhouse trial, % visual injury on spring barley; format: in vivo, Hordeum vulgare; settings: HORVS
Procedure: (§1) Seeds of the desired test plant species were planted in Sun Gro MetroMix® 306 planting mixture, which typically has a pH of 6.0 to 6.8 and an organic matter content of about 30 percent, in plastic pots with a surface area of 103.2 square centimeters (cm^2). When required to ensure good germination and healthy plants, a fungicide treatment and/or other chemical or physical treatment was applied. The plants were grown for 7-36 days (d) in a greenhouse with an approximate 14-hour (h) photoperiod which was maintained at about 23° C. during the day and 22° C. during the night. Nutrients and water were added on a regular basis and supplemental lighting was provided with overhead metal halide 1000-Watt lamps as necessary. The plants were employed for testing when they reached the second or third true leaf stage.
(§2) Weighed amounts of technical material were dissolved in a volume of 97:3 volume per volume (v/v) acetone/dimethyl sulfoxide (DMSO) to stock solutions. […] The concentrated stock solutions were diluted with an aqueous mixture of 1.5% v/v of Agri-dex crop oil concentrate to provide the appropriate application rates. Compound requirements are based upon a 12 milliliter (mL) application volume at a rate of 187 liters per hectare (L/ha). Stocks solutions of the safeners were prepared following the same procedure. Spray solutions of the safeners and experimental compound mixtures were prepared by adding the stock solutions to the appropriate amount of dilution solution to form a 12 mL spray solution in two-way combinations. Formulated compounds were applied to the plant material with an overhead Mandel track sprayer equipped with 8002E nozzles calibrated to deliver 187 L/ha over an application area of 0.503 square meters (m^2) at a spray height of 18 inches (43 centimeters (cm)) above average plant canopy. Control plants were sprayed in the same manner with the solvent blank. All herbicide application (component a) rates are in g ae/ha and all safener (component b) rates are in g ai/ha.
(§3) The treated plants and control plants were placed in a greenhouse as described above and watered by sub-irrigation to prevent wash-off of the test compounds. After 20-22 d, the condition of the test plants as compared with that of the control plants was determined visually and scored on a scale of 0 to 100 percent where 0 corresponds to no injury and 100 corresponds to complete kill. The condition of the test plants was compared with that of the control plants as determined visually and scored on a scale of 0 to 100 percent, where 0 corresponds to no injury and 100 corresponds to complete kill. Colby's equation was used to determine the herbicidal effects expected from the mixtures.
The safener cloquintocet-mexyl was combined with compound 1, compound 2, compound 3, compound 7, compound 8, compound 9, compound 10, compound 11, compound 12, compound 13, compound 14, compound 15, compound 16, compound 17, compound 18, compound 19, and compound 20, and applied to spring wheat (TRZAS), winter wheat (TRZAW), and spring barley (HORVS) and the phytotoxicity of the herbicidal compositions was measured. […]

lambsquarters (CHEAL) = assay: Postemergence greenhouse trial, % visual injury on lambsquarters; format: in vivo, Chenopodium album; settings: Chenopodium album, post-emergence, CHEAL, applied alone, read-out: % visual injury, Ob
Procedure, shortened: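 Plants at second or third true leaf stage, greenhouse-grown (14 h photoperiod, ~23/22° C.), sprayed postemergence with compounds alone or with safener cloquintocet-mexyl in 1.5% v/v Agri-dex crop oil at 187 L/ha. Visual injury scored 0–100% versus solvent-blank controls after 20-22 d; expected mixture effects by Colby's equation.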

kochia (KCHSC) = assay: Postemergence greenhouse trial, % visual injury on kochia; format: in vivo, Kochia scoparia; settings: Bassia scoparia, post-emergence, KCHSC, read-out: % visual injury, Ob
Procedure: as §1, §2
as §3, with “mixtures. […]” for “mixtures.”

common poppy (PAPRH) = assay: Postemergence greenhouse trial, % visual injury on common poppy; format: in vivo, Papaver rhoeas; settings: Papaver rhoeas, post-emergence, PAPRH, applied alone, read-out: % visual injury, Ob
Procedure: as §1, §2
as §3, with “mixtures. […]” for “mixtures.”

wild mustard (SINAR) = assay: Postemergence greenhouse trial, % visual injury on wild mustard; format: in vivo, Sinapis arvensis; settings: Brassica, post-emergence, SINAR, read-out: % visual injury, Ob
Procedure: as §1, §2
as §3, with “mixtures. […]” for “mixtures.”

[1] = system: bird's-eye speedwell (VERPE); assay: Postemergence greenhouse trial, % visual injury on bird's-eye speedwell; format: in vivo, Veronica persica; settings: VERPE, CQC-m 0
Procedure: as §1, §2
as §3, with “mixtures. […]” for “mixtures.”

SMILES	% visual injury, Ob (spring barley (HORVS); 4.375 g/ha, applied alone) [%]	% visual injury, Ob (spring barley (HORVS); 8.75 g/ha, applied alone) [%]	% visual injury, Ob (spring barley (HORVS); 17.5 g/ha, applied alone) [%]	% visual injury, Ob (spring barley (HORVS); 35 g/ha, applied alone) [%]	% visual injury, Ob (spring barley (HORVS); 70 g/ha, applied alone) [%]	pest or weed control at 4.375 g/ha (kochia (KCHSC); applied alone) [%]	pest or weed control at 8.75 g/ha (kochia (KCHSC); 8.75 g/ha, applied alone) [%]	pest or weed control at 17.5 g/ha (kochia (KCHSC); 17.5 g/ha, applied alone) [%]	pest or weed control at 35 g/ha (kochia (KCHSC); 35 g/ha, applied alone) [%]	pest or weed control at 70 g/ha (kochia (KCHSC); 70 g/ha, applied alone) [%]	pest or weed control at 4.375 g/ha (common poppy (PAPRH)) [%]	pest or weed control at 8.75 g/ha (common poppy (PAPRH)) [%]	pest or weed control at 17.5 g/ha (common poppy (PAPRH)) [%]	pest or weed control at 35 g/ha (common poppy (PAPRH)) [%]	pest or weed control at 70 g/ha (common poppy (PAPRH)) [%]	pest or weed control at 4.375 g/ha (wild mustard (SINAR); applied alone) [%]	pest or weed control at 8.75 g/ha (wild mustard (SINAR); 8.75 g/ha, applied alone) [%]	pest or weed control at 17.5 g/ha (wild mustard (SINAR); 17.5 g/ha, applied alone) [%]	pest or weed control at 35 g/ha (wild mustard (SINAR); 35 g/ha, applied alone) [%]	pest or weed control at 70 g/ha (wild mustard (SINAR); 70 g/ha, applied alone) [%]	other results
Nc1c(F)c(-c2ccc3scnc3c2)nc(C(=O)O)c1Cl [compound 17]	0	15	30	40	45	85	90	95	100	100	80	85	85	95	100	93	93	95	95	100	pest or weed control at 4.375 g/ha (lambsquarters (CHEAL); 4.375 g/ha): 40%; pest or weed control at 8.75 g/ha (lambsquarters (CHEAL); 8.75 g/ha): 60%; pest or weed control at 17.5 g/ha (lambsquarters (CHEAL); 17.5 g/ha): 70%; pest or weed control at 35 g/ha (lambsquarters (CHEAL); 35 g/ha): 80%; pest or weed control at 70 g/ha (lambsquarters (CHEAL); 70 g/ha): 85%
Nc1c(F)c(-c2ccc3ccoc3c2)nc(C(=O)O)c1Cl [compound 20]	0	10	20	30	40	70	80	85	90	95	85	85	95	100	95	60	60	83	80	93	–
CO/C=N/c1c(F)c(-c2ccc3cc[nH]c3c2F)nc(C(=O)OC)c1Cl [compound 10]	–	–	–	–	–	–	–	–	–	–	–	–	–	–	–	–	–	–	–	–	% visual injury, Ob (spring barley (HORVS); compound 4.380 g/ha, CQC-m 0): 0%; % visual injury, Ob (spring barley (HORVS); compound 8.75 g/ha, CQC-m 0): 10%; % visual injury, Ob (spring barley (HORVS); compound 17.5 g/ha, CQC-m 0): 20%; % visual injury, Ob (spring barley (HORVS); compound 35 g/ha, CQC-m 0): 20%; % visual injury, Ob (spring barley (HORVS); compound 70 g/ha, CQC-m 0): 40%; pest or weed control at 4.38 g/ha (kochia (KCHSC); compound 4.380 g/ha, CQC-m 0): 80%; pest or weed control at 8.75 g/ha (kochia (KCHSC); compound 8.75 g/ha, CQC-m 0): 80%; pest or weed control at 17.5 g/ha (kochia (KCHSC); compound 17.5 g/ha, CQC-m 0): 100%; pest or weed control at 35 g/ha (kochia (KCHSC); compound 35 g/ha, CQC-m 0): 100%; pest or weed control at 70 g/ha (kochia (KCHSC); compound 70 g/ha, CQC-m 0): 100%; pest or weed control at 4.38 g/ha (wild mustard (SINAR); compound 4.380 g/ha, CQC-m 0): 90%; pest or weed control at 8.75 g/ha (wild mustard (SINAR); compound 8.75 g/ha, CQC-m 0): 93%; pest or weed control at 17.5 g/ha (wild mustard (SINAR); compound 17.5 g/ha, CQC-m 0): 97%; pest or weed control at 35 g/ha (wild mustard (SINAR); compound 35 g/ha, CQC-m 0): 100%; pest or weed control at 70 g/ha (wild mustard (SINAR); compound 70 g/ha, CQC-m 0): 100%; % visual injury, Ob ([1]; compound 4.380 g/ha): 70%; % visual injury, Ob ([1]; compound 8.75 g/ha): 85%; % visual injury, Ob ([1]; compound 17.5 g/ha): 90%; % visual injury, Ob ([1]; compound 35 g/ha): 100%; % visual injury, Ob ([1]; compound 70 g/ha): 100%

— US9763445B2, “Safened herbicidal compositions comprising a pyridine carboxylic acid herbicide” (Dow AgroSciences, LLC, priority 2014, dated 2017)
